Results reported in ChEMBL document CHEMBL1140018, “Synthesis and structure-activity relationship of imidazo(1,2-a)thieno(3,2-e)pyrazines as IKK-beta inhibitors” (Bioorg Med Chem Lett, 2007).

What was measured:
[1] = target: T1, Inhibitor of nuclear factor kappa-B kinase subunit beta (Homo sapiens, UniProt O14920)
T1 sequence (O14920 whole entry): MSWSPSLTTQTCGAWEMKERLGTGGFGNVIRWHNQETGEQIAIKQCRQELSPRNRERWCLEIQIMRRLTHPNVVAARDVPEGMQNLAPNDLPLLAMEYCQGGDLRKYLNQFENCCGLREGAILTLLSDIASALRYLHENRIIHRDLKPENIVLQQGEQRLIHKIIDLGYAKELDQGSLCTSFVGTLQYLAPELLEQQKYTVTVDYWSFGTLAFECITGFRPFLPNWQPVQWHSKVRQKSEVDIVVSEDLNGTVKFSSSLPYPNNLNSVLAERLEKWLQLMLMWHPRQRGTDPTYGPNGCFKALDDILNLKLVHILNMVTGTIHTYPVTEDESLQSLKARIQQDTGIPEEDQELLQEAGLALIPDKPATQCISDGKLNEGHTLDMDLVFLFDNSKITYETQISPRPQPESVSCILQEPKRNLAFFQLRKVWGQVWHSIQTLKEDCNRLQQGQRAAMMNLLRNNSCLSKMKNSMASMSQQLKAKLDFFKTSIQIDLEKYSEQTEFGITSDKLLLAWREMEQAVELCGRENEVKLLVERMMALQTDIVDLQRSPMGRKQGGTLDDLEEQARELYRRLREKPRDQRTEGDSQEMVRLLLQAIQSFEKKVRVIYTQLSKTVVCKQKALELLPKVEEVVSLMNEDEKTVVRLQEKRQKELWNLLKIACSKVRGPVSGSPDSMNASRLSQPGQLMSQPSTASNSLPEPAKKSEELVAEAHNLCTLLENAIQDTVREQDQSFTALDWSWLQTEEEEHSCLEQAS

[2] = Cytotoxicity against Jurkat cells by Alamar blue assay; settings: human, Jurkat cells
Jurkat = test: Inhibition of TNF-alpha-induced response in Jurkat cells; settings: Homo sapiens
[3] = target: T2, Inhibitor of nuclear factor kappa-B kinase subunit alpha (Homo sapiens, UniProt O15111)
T2 sequence (O15111 whole entry): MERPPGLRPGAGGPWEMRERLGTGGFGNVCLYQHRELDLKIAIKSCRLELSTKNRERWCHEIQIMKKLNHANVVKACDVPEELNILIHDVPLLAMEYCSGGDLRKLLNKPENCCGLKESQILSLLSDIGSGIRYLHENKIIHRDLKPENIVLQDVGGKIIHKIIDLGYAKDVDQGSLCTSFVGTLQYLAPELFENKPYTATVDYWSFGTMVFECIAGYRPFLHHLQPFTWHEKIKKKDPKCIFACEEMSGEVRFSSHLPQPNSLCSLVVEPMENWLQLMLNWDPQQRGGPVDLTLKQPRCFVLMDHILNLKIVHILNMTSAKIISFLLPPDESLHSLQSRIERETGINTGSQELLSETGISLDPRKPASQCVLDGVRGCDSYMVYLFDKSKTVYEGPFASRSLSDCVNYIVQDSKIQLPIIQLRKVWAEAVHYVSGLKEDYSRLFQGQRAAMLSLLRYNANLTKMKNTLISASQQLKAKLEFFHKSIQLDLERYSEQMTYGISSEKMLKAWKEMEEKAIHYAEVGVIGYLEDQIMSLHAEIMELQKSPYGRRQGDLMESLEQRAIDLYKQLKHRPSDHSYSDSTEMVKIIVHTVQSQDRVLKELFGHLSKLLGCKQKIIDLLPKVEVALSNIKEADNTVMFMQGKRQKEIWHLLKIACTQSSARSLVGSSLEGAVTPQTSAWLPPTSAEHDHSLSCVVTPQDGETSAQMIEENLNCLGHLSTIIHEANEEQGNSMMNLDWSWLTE

Row | IC50 [1] [nM] | EC50 (Jurkat) [nM] | IC50 [3] [nM] | SMILES | CC50 [2] [nM]
1 | 490 | > 30000 | 7830 | CNc1nc2cc(C)sc2n2c(C)cnc12 | > 100000
2 | > 1000 | > 100000 | > 100000 | COc1nc2cc(-c3ccccc3)sc2n2c(C)cnc12 | > 100000
3 | 450 | > 100000 | 3860 | Cc1cnc2c(NCCN)nc3cc(C4=NCN=C4)sc3n12 | 38000
4 | 10 | 8020 | 1450 | Cc1cnc2c(NCCN)nc3cc(-c4cn[nH]c4)sc3n12 | 46000
5 | 140 | 29500 | 2570 | Cc1cnc2c(NCCN)nc3cc(-c4cccnc4)sc3n12 | 49000
6 | 230 | 3160 | 7990 | Cc1cnc2c(NCCNC=O)nc3cc(-c4ccccc4)sc3n12 | > 100000
7 | 270 | 59600 | 2930 | Cc1cnc2c(NCCN)nc3cc(-c4ccncc4)sc3n12 | > 100000
8 | 23 | 2610 | 510 | CNc1nc2cc(-c3cccc(CNCC(N)=O)c3)sc2n2c(C)cnc12 | > 100000
9 | 45 | 6730 | 650 | CNc1nc2cc(-c3cccc(CCN)c3)sc2n2c(C)cnc12 | 21000
10 | 27 | 690 | 190 | CNc1nc2cc(-c3cccc(C[C@@H](N)C(N)=O)c3)sc2n2c(C)cnc12 | 90000
11 | 29 | 4530 | 940 | Cc1cnc2c(NCCN)nc3cc(-c4ccoc4)sc3n12 | > 100000
12 | 95 | > 30000 | 1170 | Cc1cnc2c(NCCN(C)C)nc3cc(-c4ccccc4)sc3n12 | > 100000
13 | 520 | > 3000 | 4120 | CNc1nc2ccsc2n2c(C)cnc12 | > 100000
14 | 51 | 1900 | 1080 | CNC(=O)CNCCc1cccc(-c2cc3nc(NC)c4ncc(C)n4c3s2)c1 | 50000
15 | 38 | 2330 | 770 | CNc1nc2cc(-c3cccc(CNC(C)=O)c3)sc2n2c(C)cnc12 | > 100000
16 | 370 | 17000 | 6500 | Cc1cnc2c(N)nc3cc(-c4ccccc4)sc3n12 | > 100000
17 | 21 | 950 | 910 | Cc1cnc2c(NCCN)nc3cc(-c4cccc(CCO)c4)sc3n12 | 13000
18 | 170 | > 100000 | 12100 | Cc1cnc2c(NCCN)nc3ccsc3n12 | > 100000
19 | 95 | > 30000 | 2800 | COc1ccc(-c2cc3nc(NCCN)c4ncc(C)n4c3s2)cc1 | > 100000
20 | 21 | 1970 | 820 | CNc1nc2cc(-c3cccc(CCNC(C)=O)c3)sc2n2c(C)cnc12 | > 100000
21 | 250 | 7960 | 1260 | Cc1cnc2c(NCCN)nc3cc(-c4ccc[nH]4)sc3n12 | 7900
22 | 290 | 35600 | > 30000 | CNc1nc2cc(-c3cccc(C(N)=O)c3)sc2n2c(C)cnc12 | > 100000
23 | 13 | > 100000 | 1260 | CNc1nc2cc(-c3cccc(CC(N)C(=O)O)c3)sc2n2c(C)cnc12 (configuration not stated) | > 100000
24 | 260 | 5730 | 1990 | CCNc1nc2cc(-c3ccccc3)sc2n2c(C)cnc12 | > 100000
25 | 7 | 920 | 440 | CNc1nc2cc(-c3cccc(CCNS(N)(=O)=O)c3)sc2n2c(C)cnc12 | > 100000
26 |  | 850 | 420 | CNCCNc1nc2cc3ccccc3cc2n2c(C)cnc12 | 
